In ChEMBL document CHEMBL5042501, “Gwanakosides A and B, 6-Deoxy-α-l-talopyranose-Bearing Aromatic Metabolites from a Streptomyces sp. and Coculture with Pandoraea sp” (J Nat Prod, 2022):
Values after ≈ are worked out from the molar mass of the structure shown.

Key:
Klebsiella pneumoniae = experiment: Antibacterial activity against Klebsiella pneumoniae ATCC 10031 assessed as inhibition of bacterial growth incubated for 24 hr by CLSI based broth microdilution method; format: functional
MDA-MB-231 = experiment: Antiproliferative activity against human MDA-MB-231 cells assessed as reduction in cell viability incubated for 72 hr by SRB assay; format: functional, cell-based; conditions: MDA-MB-231, 72 h
A498 = experiment: Antiproliferative activity against human A498 cells assessed as reduction in cell viability incubated for 72 hr by SRB assay; format: functional, cell-based; conditions: A498, 72 h
HCT-116 = experiment: Antiproliferative activity against human HCT116 cells assessed as reduction in cell viability incubated for 72 hr by SRB assay; format: functional, cell-based; conditions: HCT-116, 72 h
SK-HEP1 = experiment: Antiproliferative activity against human SK-HEP1 cells assessed as reduction in cell viability incubated for 72 hr by SRB assay; format: functional, cell-based; conditions: SK-HEP1, 72 h
SNU-638 = experiment: Antiproliferative activity against human SNU-638 cells assessed as reduction in cell viability incubated for 72 hr by SRB assay; format: functional, cell-based; conditions: SNU-638, 72 h
Enterococcus faecalis = experiment: Antibacterial activity against Enterococcus faecalis ATCC 19433 assessed as inhibition of bacterial growth incubated for 24 hr by CLSI based broth microdilution method; format: functional
Salmonella enterica = experiment: microbe, parasite or virus in culture; conditions: ATCC 14028, 24 h
Description: Antibacterial activity against Salmonella enterica ATCC 14028 assessed as inhibition of bacterial growth incubated for 24 hr by CLSI based broth microdilution method

Enterococcus faecium = experiment: Antibacterial activity against Enterococcus faecium ATCC 19434 assessed as inhibition of bacterial growth incubated for 24 hr by CLSI based broth microdilution method; format: functional
Staphylococcus aureus = experiment: Antibacterial activity against Staphylococcus aureus ATCC 25923 assessed as inhibition of bacterial growth incubated for 24 hr by CLSI based broth microdilution method; format: functional
Escherichia coli = experiment: Antibacterial activity against Escherichia coli ATCC 25922 assessed as inhibition of bacterial growth incubated for 24 hr by CLSI based broth microdilution method; format: functional
[1] = tested on: Mycobacterium tuberculosis; experiment: Antibacterial activity against Mycobacterium tuberculosis mc2 6230 assessed as bacterial growth inhibition incubated for 5 days by resazurin microtiter assay; format: functional; conditions: mc2 6230, 120 h, time 5 day
Trichophyton rubrum = experiment: Antifungal activity against Trichophyton rubrum NBRC 9185 assessed as fungal growth inhibition incubated for 96 hrs; format: functional
Aspergillus fumigatus = experiment: Antifungal activity against Aspergillus fumigatus HIC 6094 assessed as fungal growth inhibition incubated for 48 hrs; format: functional
[2] = Inhibition of Staphylococcus aureus ATCC6538p Sortase A incubated for 1 hr by fluorescence spectrophotometric analysis
[3] = tested on: Trichophyton mentagrophytes; experiment: Antifungal activity against Trichophyton mentagrophytes IFM 40996 assessed as fungal growth inhibition incubated for 96 hrs; format: functional
Candida albicans = experiment: Antifungal activity against Candida albicans ATCC 10231 assessed as fungal growth inhibition incubated for 24 hrs; format: functional

Row | Structure (SMILES) | MIC (Klebsiella pneumoniae) [µg/mL] | IC50 (MDA-MB-231) [µM] | IC50 (A498) [µM] | IC50 (HCT-116) [µM] | IC50 (SK-HEP1) [µM] | IC50 (SNU-638) [µM] | MIC (Enterococcus faecalis) [µg/mL] | MIC (Salmonella enterica) [µg/mL] | MIC (Enterococcus faecium) [µg/mL] | MIC (Staphylococcus aureus) [µg/mL] | MIC (Escherichia coli) [µg/mL] | MIC50 [1] [µg/mL] | MIC [1] [µg/mL] | MIC (Trichophyton rubrum) [µg/mL] | MIC (Aspergillus fumigatus) [µg/mL] | IC50 [2] [µg/mL] | MIC [3] [µg/mL] | MIC (Candida albicans) [µg/mL]
1 | CN(C)[C@@H]1C(O)=C(C(N)=O)C(=O)[C@@]2(O)C(O)=C3C(=O)c4c(O)cccc4[C@@](C)(O)[C@H]3C[C@@H]12 [TETRACYCLINE] | 0.25 (≈ 0.563 µM) |  |  |  |  |  |  |  |  |  |  |  |  |  |  |  |  | 
2 | COc1cc([C@@H]2c3cc4c(cc3[C@@H](O[C@@H]3O[C@@H]5CO[C@@H](C)O[C@H]5[C@H](O)[C@H]3O)[C@H]3COC(=O)[C@H]23)OCO4)cc(OC)c1O [ETOPOSIDE] |  | 2.8 | 0.23 | 0.25 | 0.22 | 0.4 |  |  |  |  |  |  |  |  |  |  |  | 
3 | CC1(C)S[C@@H]2[C@H](NC(=O)[C@H](N)c3ccccc3)C(=O)N2[C@H]1C(=O)O [AMPICILLIN] |  |  |  |  |  |  | 0.5 (≈ 1.43 µM) | 0.13 (≈ 0.372 µM) | 0.25 (≈ 0.715 µM) | 0.13 (≈ 0.372 µM) | 8 (≈ 22.9 µM) |  |  |  |  |  |  | 
4 | COc1nc2ccc(Br)cc2cc1[C@@H](c1ccccc1)[C@@](O)(CCN(C)C)c1cccc2ccccc12 [BEDAQUILINE] |  |  |  |  |  |  |  |  |  |  |  | 0.5 (≈ 0.9 µM) |  |  |  |  |  | 
5 | Cc1cc2c(c(O[C@@H]3O[C@@H](C)[C@@H](O)[C@@H](O)[C@H]3O)c1)-c1cc3c(c(O)c1[C@@H](O)C2)C(=O)c1c(O)cc(O)cc1C3=O | > 128 | > 20 | > 20 | > 20 | > 20 | > 20 | > 128 | > 128 | 128 (≈ 233 µM) | > 128 | > 128 |  |  |  |  |  |  | 
6 | Cc1c(Cl)c(O[C@@H]2O[C@@H](C)[C@@H](O)[C@@H](O)[C@H]2O)c2cc(O[C@@H]3O[C@@H](C)[C@@H](O)[C@@H](O)[C@H]3O)ccc2c1Cl | 32 (≈ 59.8 µM) | 19.4 | 18.8 | 5.6 | 14.7 | 8.6 | 16 (≈ 29.9 µM) | 16 (≈ 29.9 µM) | 16 (≈ 29.9 µM) | 8 (≈ 14.9 µM) | > 128 |  | 15 (≈ 28 µM) | > 128 | > 128 | 63.3 (≈ 118 µM) | > 128 | > 128
